# Measured values published in patent US8445431B2, “Ligands having metal binding ability and targeting properties” (The Ohio State University, priority 2004, dated 2013).
# No end group written: not given here.
# Key:
# [1] = tested on: pUC19 supercoiled plasmid DNA; experiment: Plasmid DNA cleavage, agarose gel electrophoresis and quantitation; type: biochemical
# Experimental: Plasmid pUC19 (2686 bp) was purchased from New England Biolabs Inc. The plasmid was transformed into DH5α competent cells, amplified, and pure plasmid isolated using QIAGEN protocols. Fresh plasmid DNA (over 90-95% supercoiled) was prepared before each experiment to avoid contamination by any other form of plasmid DNA. In general, DNA cleavage experiments were performed with 50 μM base pair concentration of pUC19, 25 μM Cu-peptide, and 250 μM ascorbate in 10 mM Tris buffer, pH 7.4, at 37° C. A control reaction was carried out using the same conditions as the cleavage reaction, but lacking the Cu-peptide complex. The reactions were quenched with a loading buffer containing 0.5 M EDTA.
# Agarose gel electrophoresis (0.8%) containing ethidium bromide was performed under standard conditions. DNA samples were run on horizontal gels in 1×TAE buffer for 90 min at […].
# Quantitation of closed circular, nicked and linear DNA was made by densitometric analysis of ethidium bromide containing agarose gels. Quantitation was performed by fluorescence imaging by use of a Gel-Doc 1000 (BioRad) and data analysis with Multianalysis software (version 1.1) provided by the manufacturer using the volume quantitation method. In all cases, background fluorescence was subtracted by reference to a lane containing no DNA. A correction factor of 1.47 was used for supercoiled DNA, since the ability of ethidium bromide to intercalate into supercoiled DNA (form I) is decreased relative to nicked (form II) and linear DNA (form III). The fraction of each form of DNA was calculated by dividing the intensity of each band by the total intensities of all the bands in the lane. All results were obtained from experiments that were performed at least in triplicate.
# Consequently, the reaction was considered in terms of the standard rate law shown in equation 3. The initial rate (V0) corresponding to less than 5% conversion was considered as a function of [complex]^+ (equation 4 and 5). Rate=V=d[DNA]/dt=kobs[complex]t^m (3) • where kobs=kn, [DNA] when t=0, V0=kobs[complex]0^m (4) and ln V0=m ln[complex]0+ln kobs (5) A plot of ln V0 versus ln [[GGH-Cu]^−]0 at constant DNA concentration produced a straight line relationship (R^2=0.99) (FIG. 27A).
# Investigation of DNA linearization. Following cleavage, the fraction of full length linear DNA, f(III), is related to the number, n2, of double-strand breaks per molecule given by the first term of a Poisson distribution (equation 1). f(III)=n2exp(−n2) (1) The sum of single-strand, n1, and double-strand, n2, breaks per molecule (n1+n2) was determined from the fraction f(I) of supercoiled DNA remaining after treatment with the [peptide-Cu] reagent. f(I)=exp[−(n1+n2)] […] In these studies, both n1 and n2 were calculated by use of equations (1) and (2).
# [2] = tested on: RRE RNA; experiment: RRE RNA cleavage, denaturing PAGE and mass spectrometry; type: biochemical, HIV; conditions: for RRE RNA cleavage (PAGE / mass spectrometry): in the presence of ascorbate, 1:1 with RRE RNA, 37° C., 6 hours; for t1 of RRE RNA substrate decrease: [RRE]=5 μM, complex/RRE 1:1, 37° C.
# Experimental: Control reactions were carried out at the same time (FIG. 18). The reactions were quenched with a loading buffer containing 8 M Urea and 0.5 M EDTA, but without dyes. The loading buffer with dyes was run in another lane to control the electrophoresis. The reaction samples were loaded onto either 15% or 20% polyacrylamide/8M urea denaturing gels (from American Bioanalytical) and electrophoresed at 300 V for 8 h. To avoid any influence on fluorescein, the reactions and gel eletrophoresis were performed in the dark. Each experiment was carried out at least in triplicate.
# RNA cleavage reactions were performed in 40 μl total volumes with 100 μM unlabeled RRE RNA, 1:1 concentration ratio of Cu-peptide complex with 1 mM ascorbate in 20 mM Hepes buffer, 100 mM NaCl, pH=7.4 at 37° C. Control reactions were carried out with RRE RNA and ascorbate. ESI/MS was used to get the mass of the cleavage products. Electrospray ionization (ESI) experiments were performed on a Micromass Q-Tof™ II (Micromass, Wythenshawe, UK) mass spectrometer equipped with an orthogonal nanospray source from New Objective, Inc. (Woburn, Mass.) operated in negative ion mode. Sodium Iodide was used for mass calibration for a calibration range of m/z 500-3000. Salt buffers from the RNA samples were removed using ZipTips (Millipore, Billerica, Mass.) following recommended manufacturer protocols. The elutants from the ZipTip were used directly and infused into the electrospray source at a rate of […]. Optimal ESI conditions were: capillary voltage 3000 V, source temperature 110° C. and a cone voltage of 60 V. Q1 was set to optimally pass ions from m/z 500-3000 and all ions transmitted into the pusher region of the TOF analyzer were scanned over m/z (your ramge) with a 1 s integration time. Data was acquired in continuum mode until acceptable averaged data was obtained (10-15 minutes). ESI data was deconvoluted using MaxEnt I provided by Micromass (FIGS. 19-21) and the cleavage sites were assigned (FIG. 22).
# [3] = tested on: HCV IRES RNA; experiment: HCV IRES RNA cleavage, denaturing gel; type: biochemical; conditions: RNA 2 μM, RNA to metal complex 1 to 10, 1 mM ascorbic acid, 37° C., 24 hours
# Experimental: The cleavage of HCV IRES RNA by GGHG-(D) peptide copper complexes was studied. […] The HCV IRES RNA cleavage reactions by peptide copper complexes, free Cu^2+, or other peptide metal complexes were carried out at 37° C. in a buffer of 50 mM HEPES pH 7.0, 100 mM NaCl, 2 mM MgCl2. After reactions, 2 μL of loading buffer containing 10% glycerol, 0.05M EDTA, and 6M urea was added into each 10 μL reaction mixture and was then heated at 95° C. for 5 min before loading into 20% acrylamide, 8M urea gel with 0.5×TAE buffer and running voltage around 100 V for overnight. Before cleavage reaction, HCV IRES RNA was heated at 95° C. for 5 min and cooled to room temperature in order to fold into correct structure.
# The concentration of RNA in cleavage reaction is 2 μM. The ratio of RNA to metal complexes is 1 to 10. The oxidative cleavage reaction is performed by adding ascorbic acid to a final concentration of 1 mM and a total volume of 10 μL at 37° C. for 24 hours. The result of the cleavage reaction is obtained by running a 20% denaturing polyacrylamide gel. […] No hydrolytic product has been observed from the result. […]
# The time-dependence of cleavage was also examined. […] After the reaction is finished, the result of the reaction is analyzed by running 20% acrylamide gel. The cleavage effect by peptide copper complexes is analyzed by the intensity of the fluorescent image of each band by Biorad GelDoc. […]
# [4] = tested on: GFP-RRE construct (RRE RNA fused downstream of GFP mRNA); type: cell-based, Escherichia coli; conditions: 10 μM final concentration; for GFP (GFP-RRE construct) expression, fluorescence intensity/total protein (mg) of control: control without any treatment
# Experimental: Escherichia coli strain BL21 (DE3) cells containing pET-21 GFP (as non-specific cleavage control) or pET-21GFP-RRE plasmid were grown to an OD600 of around 0.6, and the over-expression was induced with 0.5 mM IPTG at 37° C. incubation. The cell pellets from 500 1 culture were resuspended in resuspension buffer,^3 then lysed with sonicating. After centrifugation (14,000 rpm for 20 min), the cell lysate for each sample was transferred onto 96 well plate and the fluorescence of GFP protein was monitored by a Perkin Elmer LS50B spectrofluorimeter. Excitation and emission wavelengths were set to 390 nm and 510 nm, respectively. The amount of total protein in each cell lysate was measured with Bio-Rad protein assay.
# Basically, once the RRE RNA fused downstream of the GFP mRNA is recognized and cleaved by metal-rev peptide complexes, the expression level of GFP protein will decrease accordingly, which can be monitored by the fluorescence intensity.
# The expression level of GFP (GFP-RRE construct) was managed by the fluorescent emission intensity at 510 nm, with λex=390 nm. […] To correct the influence of the total number of cells lysated, the fluorescent emission intensity at 510 nm was divided by the amount of total protein for each sample.
# [5] = molecular target: HIV RRE RNA; experiment: Fluorescence quenching binding to 5'-fluorescein labeled RRE RNA; conditions: 20 mM Hepes, 100 mM NaCl, pH 7.4, room temperature
# Experimental: (§1) A 6 nM solution of 5′-fluorescein labeled RRE RNA (molecular concentration) was prepared in 20 mM Hepes buffer, 100 mM NaCl, pH=7.4. A 1 μl aliquot of 5 μM (for RRE test) or 25 μM (for TAR test) peptide or Cu-peptide complex was measured in a 300 μl quartz cuvette at room temperature using a Perkin Elmer LS50B spectrofluorimeter, with excitation (slit=6) and emission (slit=6) wavelengths set at 490 nm and 515 nm, respectively. Dissociation constants were obtained by fitting fluorescence quenching date to a one site binding equation r=Bx/(Kd+X) with binding function r (where r=(yt−y0)/(yfinal−yinitial)) versus x as peptide or Cu-peptide complex concentration (FIG. 17). The values for the dilution effect have already been subtracted from each point. Since our Cu-Rev1 complex has very little absorbance (ε515˜30 M^−1cm^−1), the inner filter effect is negligible in this assay.
# [6] = molecular target: HIV TAR RNA; experiment: Fluorescence quenching binding to 5' FL-labeled TAR RNA (binding specificity); conditions: 20 mM Hepes, 100 mM NaCl, pH 7.4, room temperature
# Experimental: as §1
# [7] = molecular target: HCV IRES RNA; experiment: Binding to fluorescein-labeled HCV IRES, 96-well fluorescent reader; conditions: 10 nM HCV IRES, 50 mM HEPES pH 7.0, 100 mM NaCl, 2 mM MgCl2; read-out: dissociation constant between HCV IRES and the ligand
# Experimental: The binding constants for peptides to HCV IRES was determined by fluorescence methods. The sequence of the HCV IRES RNA is: […] (SEQ ID NO: 33). The sequence of the peptide recognition motif is: Y-(D)-RFK. The sequence of the metal binding peptide is: GGH. The sequence of the ligand having a metal binding domain and a recognition domain is GGHGY-(D)-RFK, where (D) indicates a (D) configuration amino acid.
# A 10 nM HCV IRES with a fluoroscein label was titrated with increasing concentrations of the ligand, ranging from 5 to 1000 nM in a 50 mM HEPES pH 7.0, 100 mM NaCl, 2 mM MgCl2 to a total volume […]. The water used in this experiment was treated with DEPC at 37° C. overnight and autoclaved. HCV IRES RNA was heated at 95° C. for three minutes, and then slowly cooled to the room temperature. The binding event was determined by 96-well fluorescent reader with excitation wavelength at 494 nm and emission wavelength at 520 nm. The result data was plotted as fraction versus peptide concentration (FIG. 29) and then fitted with one site-binding model, where y is equal to API, and x is peptide concentration. y=Bx/(Kd+x)
compound,measurement,setting,value
[GGH-Cu]^−: complex of peptide GGH with divalent copper (Gly-Gly-His; also: complex with divalent copper),time to quantitative production of nicked plasmid DNA (form II),"[1]; [DNA]=50 μM, complex 25 μM, ascorbate 250 μM",≤ 28 min
same,"kobs, pseudo-first order disappearance of supercoiled DNA","[1]; [DNA]=50 μM, complex 25 μM, ascorbate 250 μM, 10 mM Tris pH 7.4, 37° C.",~0.07 min⁻¹
same,"k2, second-order rate constant of DNA cleavage","[1]; from ln V0 plots, with ascorbate",~39 M⁻¹ s⁻¹
same,concentration at which DNA cleavage activity is evident,[1]; in the presence of ascorbate,10 µM
same,DNA cleavage products / pattern on gel,[1]; with ascorbate,linear DNA was not found
"[Cu+2] [Cu^2+(aq), reference compound]",RRE RNA cleavage (PAGE / mass spectrometry),[2],random cleavage
same,DNA cleavage products / pattern on gel,[1]; with ascorbate,smear pattern
same,HCV IRES RNA cleavage (gel),[3],efficiency is significantly lower
"TRQARRNRRRRWRERQR [Rev peptide, reference compound]",effect on GFP (GFP-RRE construct) expression,[4],No decrease
GGHTRQARRNRRRRWRERQR [Rev1],Kd,[5],~30 nM
same,Kd,[6],~5000 nM
same,RRE RNA cleavage (PAGE / mass spectrometry),[2],no reaction was observed
same,"GFP (GFP-RRE construct) expression, fluorescence intensity/total protein (mg) of control",[4],around 40%
GGHGY-(D)-RFK [the ligand],Kd,[7],5.2 nM
copper complex of Rev1 peptide GGHTRQARRNRRRRWRERQR [Cu-Rev1],Kd,[5],~35 nM
same,Kd,[6],~5000 nM
same,RRE RNA cleavage in the absence of ascorbate,[2]; hydrolytic condition,much slower pace
same,t1 of RRE RNA substrate decrease,[2]; hydrolytic condition,6.36 h
same,RRE RNA cleavage (PAGE / mass spectrometry),[2]; listed as Cu-Rev1 peptide complex,three specific cleavage sites
same,RRE RNA cleavage (PAGE / mass spectrometry),[2]; listed as Cu-peptide complex,effective
same,t1 of RRE RNA substrate decrease,[2]; oxidative condition with ascorbate,4.75 h
same,"GFP (GFP-RRE construct) expression, fluorescence intensity/total protein (mg) of control",[4],around 40%
